The record followed here is US20110201623A1, “Crystalline Form Of A Cyclopropyl Benzamide Derivative” (priority 2010, published 2011).

Usually IC50 stands for the concentration that gives 50% inhibition.

Molecules are shown by their SMILES.

The target in experiment [1] is human H3 receptor (445 aa) (Homo sapiens, UniProt Q9Y5N1). Briefly: Human histamine H3 binding assay with the agonist radioligand [3H]-N-α-methylhistamine. Particulars: membranes, SPA, 1.5 nmol/L radioligand, pH 7.4, room temperature; read-out: IC50 equivalent of pIC50, inhibition of specific binding of [3H]-N-α-Methyl Histamine to the human H3 receptor (converted). How it is done: Human Histamine H3 Binding Assay with the Agonist Radioligand [^3H]-N-a-Methylhistamine
The H3 binding assay was used to evaluate the ability of a compound of formula (I) to inhibit [^3H]-N-a-methylhistamine under the conditions as described below: All binding assays were performed in a buffer consisting of 20 mmol/L Hepes, 100 mmol/L NaCl. The pH was set at 7.4 at room temperature. Liquid handling robots were used to prepare, in drug plates, 10 points dose response curves of the compound of formula (I) (3-fold serial dilutions, starting at 10 μmol/L). The assay, performed in 96-well plates, consisted of 100 μL, containing 20 μL of buffer alone for total binding (column #1), 20 μL of imetit (5×) for the non specific binding (column #2), 20 μL of the compound of formula (I) (5×) at varying concentrations (column #3 to #12), plus 20 μL of [3H]-N-a-Methylhistamine (25 000 dpm/well, 1.5 nmol/L) in all wells and finally 60 μL of membranes (20 μg of protein/well) mix is added to start the reaction. Membranes and SPA beads (1000 μg/well) were mixed together and incubated for 30 minutes at room is temperature prior to the start of the assay. […] Plates were then mixed on an orbital mixer, incubated 90 minutes at room temperature, and then read on a Trilux 384™ counter.

In another experiment the target is hH3 receptors (Homo sapiens, UniProt Q9Y5N1). Kind of experiment: [35S]GTPγS binding assay, antagonist mode (RαMH EC80). It is filed as biochemical. The settings on record: RαMH at EC80 (30 nmol/L for hH3), membranes, SPA; read-out: IC50 equivalent of pIC50, inhibition of H3 agonist R-α-Methyl-Histamine stimulated [35S]GTPγS binding (converted). How it is done: Guanosine 5′-O-(3-[^35S]thio)triphosphate [GTPgS] Binding Assay
[^35S]GTPγS binding assay was performed in a buffer consisting of 20 mmol/L Hepes, 100 mmol/L NaCl, 10 mmol/L MgCl2, 3 μg/mL saponine and 10 μmol/L GDP. The pH was set at 7.4 at room temperature. Liquid handling robots were used to prepare, in drug plates, 10 points dose response curves of the compound of formula (I) (3-fold serial dilutions, starting at 1 μmol/L for hH3 receptors and 10 μmol/L for rH3 receptors). The assay, performed in 96-well plates, consisted of 120 μL, containing 20 μL of RαMH (EC80, antagonist mode), 20 μL the compound of formula (I) at varying concentrations, 20 μL of the tracer [^35S]GTPγS (60000 dpm/well, 0.2 nmol/L) and finally 60 μL of membranes (10 μg of protein/well for hH3) mix is added to start the reaction. Membranes, SPA beads (125 μg/well) and GDP were mixed together and incubated for 30 minutes at room temperature prior to the start of the assay. Eight wells were used to define baseline and RαMH EC80 (30 nmol/L for hH3 receptors) define the positive control. Plates were then mixed (2 minutes) on an orbital mixer, incubated 60 minutes at room temperature, and then read on a Trilux 384™ counter.
In general terms: Binding of GTPγS marks nucleotide exchange on a G protein.

human H3 receptor (445 aa), sequence (Q9Y5N1 whole entry): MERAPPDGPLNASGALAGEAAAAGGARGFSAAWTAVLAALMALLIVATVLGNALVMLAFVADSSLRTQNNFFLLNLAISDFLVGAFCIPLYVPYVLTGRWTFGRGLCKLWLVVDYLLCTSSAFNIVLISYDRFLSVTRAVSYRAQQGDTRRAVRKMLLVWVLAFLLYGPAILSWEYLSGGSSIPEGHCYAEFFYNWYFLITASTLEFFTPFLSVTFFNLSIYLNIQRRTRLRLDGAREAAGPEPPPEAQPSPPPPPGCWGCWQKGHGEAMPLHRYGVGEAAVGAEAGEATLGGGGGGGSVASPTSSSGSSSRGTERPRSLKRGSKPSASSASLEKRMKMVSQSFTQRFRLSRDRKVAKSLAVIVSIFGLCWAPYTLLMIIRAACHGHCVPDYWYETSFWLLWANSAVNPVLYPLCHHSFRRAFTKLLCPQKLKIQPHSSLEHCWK
hH3 receptors, sequence (Q9Y5N1 whole entry): as above

Consider `NC(=O)c1ccc([C@H]2C[C@@H]2C(=O)N2CCN(C3CCC3)CC2)cc1` [Compound (I), 4-{(1S,2S)-2-[(4-cyclobutylpiperazin-1-yl)carbonyl]-cyclopropyl}-benzamide], for which the values for the IC50 (in experiment [1]; at hH3 receptors) were 13 nM and 3 nM, respectively.
